In patent US10076576B2, “Minimally toxic prodrugs” (priority 2012, dated 2018):
“And” between values parts separate entries of the source, which are not always exact repeats. Identical values can stand only once.

Key:
[1] = target: dihydrofolate reductase (DHFR) (Homo sapiens, UniProt P00374); conditions: cited from earlier work
[2] = Stability in citrated human blood; conditions: 5 hours incubation at 37° C. in citrated human blood, 50 μM
[3] = system: LS-174T tumor cell secreted peptidases; assay: Reactivation assay in LS174T tumor cell conditioned medium; assay type: biochemical, human; conditions: for activation by tumor cell secreted enzymes (in words): LS174T tumor cell conditioned medium
Experimental: Sub-confluent cultures of LS-174T tumor cells were washed twice with a saline phosphate buffer solution, and fresh culture medium (DMEM-F12 without phenol red) containing 0.02% bovine serum albumin is added (100 μl/cm^2). After 24 hours incubation, the conditioned medium is collected, centrifuged for 10 minutes at 300 g, buffered with 1 M Tris-HCl, pH 7.4 (1 volume of buffer+19 volumes of medium) and concentrated 20 times by […] (cutoff threshold of 10 kDa).
Drug compounds (50 μM) were incubated for 0, 1, 3 or 5 hours at 37° C. in the presence of freshly prepared LS174T tumor cell conditioned medium. Fifty μL of sample were collected at each time point and processed as described above for human plasma.

[4] = Stability in citrated human plasma; conditions: 5 hours incubation at 37° C. in citrated human plasma (pH7), 50 μM
Experimental: The drug conjugates (50 μM) were mixed with human plasma and incubated for 5 hours at 37° C. in a water bath. […] Supernatant was collected.

[5] = target: T1, CD10 (recombinant human neprilysin) (Homo sapiens, UniProt P08473); assay: Reactivation assay with purified CD10; assay type: biochemical; conditions: 3 h at 37° C.; for % Metabolites released after 3 h (CD10 10 nM) / CD10 10 nM (cleavage +/−): 50 μM compound
T1 construct: purchased R&D systems 1182-ZN

[6] = target: T2, TOP (recombinant human thimet oligopeptidase) (Homo sapiens, UniProt P52888); assay: Reactivation assay with purified TOP; assay type: biochemical; conditions: 3 h at 37° C.; for % Metabolites released after 3 h (TOP 5 nM) / TOP 5 nM (cleavage +/−): 50 μM compound
T2 construct: purchased R&D systems 3439-ZN
Experimental: (§1) TOP (recombinant human thimet oligopeptidase, R&D systems, Ref 3439-ZN) was diluted at 10 nM in a solution of 50 mM Tris-HCl pH 7.4/0.5M NaCl/0.1M DTT. CD26 and FAP were diluted at 1 μg/mL in a Tris-HCl pH 7.5 buffer. Reactions were initiated by addition of 50 μM of each compound to enzymes solutions (1 V enzyme solution+1 V 100 μM drug solution). Samples were incubated for 0, 1, or 3 hours at 37° C. in a water bath in the presence of purified enzymes. Fifty μL of sample were collected at each time point and processed as described above for human plasma. Activation of Suc-βALAL-dox was tested in parallel as a reference.

tumor cell lines = conditions: cited from earlier work
[7] = In vivo toxicity after single iv bolus injection (body weight); set-up: species or system OF-1 mice
Experimental: FIG. 1. Effect of PhAc-peptide-Dox conjugates on the body weight of OF-1 normal mice (n=4). […] Results represent the mean body weight evolution.
The in vivo toxicity was evaluated by monitoring body weight.

CD26 = CD26 (Homo sapiens, UniProt P27487); assay: Reactivation assay with purified CD26; assay type: biochemical; conditions: 3 h incubation at 37° C.
Experimental: as §1

FAP = target: T3, FAP (Homo sapiens, UniProt Q12884); assay: Reactivation assay with purified FAP; assay type: biochemical; conditions: 3 h incubation at 37° C.
T3 sequence (Q12884 1-760): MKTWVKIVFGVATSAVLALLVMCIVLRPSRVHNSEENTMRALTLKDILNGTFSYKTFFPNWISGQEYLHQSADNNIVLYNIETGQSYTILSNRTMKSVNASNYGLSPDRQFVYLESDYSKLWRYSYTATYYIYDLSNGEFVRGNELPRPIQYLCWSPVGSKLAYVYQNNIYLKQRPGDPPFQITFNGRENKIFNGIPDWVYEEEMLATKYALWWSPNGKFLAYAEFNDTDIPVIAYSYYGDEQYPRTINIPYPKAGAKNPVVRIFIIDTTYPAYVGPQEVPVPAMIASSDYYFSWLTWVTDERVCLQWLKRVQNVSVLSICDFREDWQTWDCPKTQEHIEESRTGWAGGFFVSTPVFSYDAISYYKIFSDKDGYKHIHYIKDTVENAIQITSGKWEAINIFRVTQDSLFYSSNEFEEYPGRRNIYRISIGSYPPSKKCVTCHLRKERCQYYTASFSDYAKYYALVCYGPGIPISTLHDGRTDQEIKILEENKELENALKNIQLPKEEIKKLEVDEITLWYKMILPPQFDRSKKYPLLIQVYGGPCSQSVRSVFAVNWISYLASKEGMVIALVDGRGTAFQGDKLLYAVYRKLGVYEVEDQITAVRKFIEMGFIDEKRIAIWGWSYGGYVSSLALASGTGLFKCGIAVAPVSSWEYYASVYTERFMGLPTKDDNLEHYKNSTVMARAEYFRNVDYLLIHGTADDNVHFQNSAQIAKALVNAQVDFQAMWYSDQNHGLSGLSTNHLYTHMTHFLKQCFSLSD
Experimental: as §1

T1 sequence (P08473 52-750 limits assumed): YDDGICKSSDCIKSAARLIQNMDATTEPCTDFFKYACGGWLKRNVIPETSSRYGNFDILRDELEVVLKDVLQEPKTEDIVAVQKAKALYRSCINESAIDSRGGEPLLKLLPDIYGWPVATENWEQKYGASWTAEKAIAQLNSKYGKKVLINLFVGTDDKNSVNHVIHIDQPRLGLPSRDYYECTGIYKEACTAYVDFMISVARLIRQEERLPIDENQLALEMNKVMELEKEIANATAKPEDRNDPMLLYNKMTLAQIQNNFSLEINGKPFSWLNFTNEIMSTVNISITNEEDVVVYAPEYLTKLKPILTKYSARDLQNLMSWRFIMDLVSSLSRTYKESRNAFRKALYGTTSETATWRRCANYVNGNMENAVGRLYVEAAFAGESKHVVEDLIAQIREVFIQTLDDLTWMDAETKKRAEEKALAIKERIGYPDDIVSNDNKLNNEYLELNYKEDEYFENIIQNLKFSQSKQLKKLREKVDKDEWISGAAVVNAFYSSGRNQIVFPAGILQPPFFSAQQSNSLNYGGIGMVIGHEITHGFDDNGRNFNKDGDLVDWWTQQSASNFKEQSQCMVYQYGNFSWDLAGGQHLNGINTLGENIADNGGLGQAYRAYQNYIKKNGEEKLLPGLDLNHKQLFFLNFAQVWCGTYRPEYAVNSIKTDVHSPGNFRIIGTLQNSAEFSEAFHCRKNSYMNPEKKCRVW
T2 sequence (P52888 whole entry): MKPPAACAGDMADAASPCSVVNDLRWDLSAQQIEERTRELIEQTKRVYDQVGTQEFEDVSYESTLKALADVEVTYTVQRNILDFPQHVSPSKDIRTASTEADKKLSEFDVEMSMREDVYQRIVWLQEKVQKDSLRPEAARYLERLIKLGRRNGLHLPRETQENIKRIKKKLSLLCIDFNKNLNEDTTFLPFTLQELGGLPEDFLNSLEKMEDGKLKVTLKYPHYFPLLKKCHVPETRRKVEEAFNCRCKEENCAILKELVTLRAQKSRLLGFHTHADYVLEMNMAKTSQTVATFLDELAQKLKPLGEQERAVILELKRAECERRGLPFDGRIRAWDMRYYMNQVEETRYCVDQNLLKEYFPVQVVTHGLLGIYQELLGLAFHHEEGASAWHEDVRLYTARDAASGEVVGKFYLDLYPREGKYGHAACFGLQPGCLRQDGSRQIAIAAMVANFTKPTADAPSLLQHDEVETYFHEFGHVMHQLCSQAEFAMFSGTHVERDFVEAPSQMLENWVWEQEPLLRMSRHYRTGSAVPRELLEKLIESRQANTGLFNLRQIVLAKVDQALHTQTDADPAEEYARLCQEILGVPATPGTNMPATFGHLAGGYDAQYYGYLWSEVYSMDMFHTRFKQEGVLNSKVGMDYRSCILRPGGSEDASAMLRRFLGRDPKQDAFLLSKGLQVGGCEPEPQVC
Sequence of CD26 (P27487 whole entry): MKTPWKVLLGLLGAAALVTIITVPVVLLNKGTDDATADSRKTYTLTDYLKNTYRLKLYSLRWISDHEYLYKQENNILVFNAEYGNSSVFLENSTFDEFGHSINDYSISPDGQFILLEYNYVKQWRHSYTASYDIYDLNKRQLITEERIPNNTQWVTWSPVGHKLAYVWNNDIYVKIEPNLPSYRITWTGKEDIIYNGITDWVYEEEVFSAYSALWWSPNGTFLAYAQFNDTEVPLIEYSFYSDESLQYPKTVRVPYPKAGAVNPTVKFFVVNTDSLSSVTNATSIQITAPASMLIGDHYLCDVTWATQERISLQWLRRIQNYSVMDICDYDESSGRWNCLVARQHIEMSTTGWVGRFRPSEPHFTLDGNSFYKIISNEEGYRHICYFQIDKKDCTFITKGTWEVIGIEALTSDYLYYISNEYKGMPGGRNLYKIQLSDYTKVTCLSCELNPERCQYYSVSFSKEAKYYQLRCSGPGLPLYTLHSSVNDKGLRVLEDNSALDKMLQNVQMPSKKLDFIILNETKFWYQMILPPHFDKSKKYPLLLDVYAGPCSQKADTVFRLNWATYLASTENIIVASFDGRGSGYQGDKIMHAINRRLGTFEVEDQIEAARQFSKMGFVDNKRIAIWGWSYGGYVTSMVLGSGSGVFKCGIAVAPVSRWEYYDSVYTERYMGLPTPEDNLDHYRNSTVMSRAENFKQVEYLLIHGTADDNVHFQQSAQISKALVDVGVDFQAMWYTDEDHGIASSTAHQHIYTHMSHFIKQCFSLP
Sequence of dihydrofolate reductase (DHFR) (P00374 whole entry, species assumed): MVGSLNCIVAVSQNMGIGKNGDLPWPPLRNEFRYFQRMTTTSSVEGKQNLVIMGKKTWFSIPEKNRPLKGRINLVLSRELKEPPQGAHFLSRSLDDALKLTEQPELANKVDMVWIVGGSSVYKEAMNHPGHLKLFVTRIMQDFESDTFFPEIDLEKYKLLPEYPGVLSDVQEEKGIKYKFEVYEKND

Compound	% Metabolites released after 5 h (LS174T CM20xcc) ([3]; 5 h at 37° C., 50 μM compound)	activation by tumor cell secreted enzymes (in words) [3]	cleavage by CD10 (in words) [5]	% Metabolites released after 3 h (CD10 10 nM) [5]	% Metabolites released after 3 h (TOP 5 nM) [6]	also measured
Methotrexate	–	–	–	–	–	affinity for DHFR relative to folate [1]: ~1000 fold
COc1cccc2c1C(=O)c1c(O)c3c(c(O)c1C2=O)CC(O)(C(=O)CO)CC3OC1CC(NC(=O)C(Cc2ccccc2)NC(=O)C(C)NC(=O)C(CC(C)C)NC(=O)C(C)NC(=O)CP(=O)(O)O)C(O)C(C)O1 (stereo not shown) [PhAc-ALAF-Dox, PhAc-ALAF-doxorubicin]	32 ± 15%	activated into F-Dox	moderately cleaved	24 ± 5%	<5%	% metabolites released: Dox [2]: 5%; % metabolites released: F-Dox [2]: 5%; total % metabolites [2]: 10%; % metabolites released: Dox [4]: 0%; % metabolites released: F-Dox [4]: 2%; total % metabolites [4]: 2%; TOP 5 nM (cleavage +/−) [6]: −* (*less than 5% of metabolites detected)
PhAc-TSGP-doxorubicin	35 ± 18%	mainly GP-Dox is detected	not or very slightly activated	0%	38% and 38 ± 2%	–
COc1cc2cc(c1Cl)N(C)C(=O)C[C@H](OC(=O)[C@H](C)N(C)C(C)=O)[C@]1(C)O[C@H]1[C@H](C)[C@@H]1C[C@@](O)(NC(=O)O1)[C@H](OC)/C=C/C=C(\C)C2 [Maytansine]	–	–	–	–	–	fold higher cytotoxicity than the Vinca alkaloids (tumor cell lines): about 100 fold; fold higher toxicity than doxorubicin (tumor cell lines): about 1000 fold
PhAc-DLGP-doxorubicin	0%	not activated	not or very slightly activated	0%	0%	cleavage by TOP (in words) [6]: not cleaved
PhAc-GPGP-doxorubicin	0%	not activated	not or very slightly activated	0%	0%	cleavage by TOP (in words) [6]: not cleaved
PhAc-KLGP-doxorubicin	39 ± 13%	mainly GP-Dox is detected	not or very slightly activated	<5%	31% and 31 ± 5%	CD10 10 nM (cleavage +/−) [5]: −* (*less than 5% of metabolites detected)
COc1cccc2c1C(=O)c1c(O)c3c(c(O)c1C2=O)CC(O)(C(=O)CO)CC3OC1CC(NC(=O)C(CC(C)C)NC(=O)C(C)NC(=O)C(CC(C)C)NC(=O)C(C)NC(=O)CP(=O)(O)O)C(O)C(C)O1 (stereo not shown) [PhAc-ALAL-Dox, PhAc-ALAL-doxorubicin]	65 ± 19%	activated	not efficiently cleaved	–	44% and 44 ± 6%	% metabolites released: AL-Dox [2]: 0%; % metabolites released: Dox [2]: 9%; % metabolites released: L-dox [2]: 6%; total % metabolites [2]: 15%; % metabolites released: AL-Dox [4]: 0%; % metabolites released: Dox [4]: <1%; % metabolites released: L-dox [4]: 2%; total % metabolites [4]: 2%; CD10 10 nM (cleavage +/−) [5]: −* (*less than 5% of metabolites detected); body weight loss (in words) ([7]; 80 μmol/kg single iv): No significant body weight loss; toxicity (in words) ([7]; 160 μmol/kg single iv): high toxicity
PhAc-AIGP-doxorubicin	3 ± 3%	not activated	–	18% and 18 ± 3%	<5%	LS174T CM20xcc (activation +/−) ([3]; 5 h at 37° C., conditioned medium concentrated 20 times, 50 μM compound): −* (*less than 5% of metabolites detected); cleavage by TOP (in words) [6]: not cleaved; TOP 5 nM (cleavage +/−) [6]: −* (*less than 5% of metabolites detected)
COc1cccc2c1C(=O)c1c(O)c3c(c(O)c1C2=O)C[C@@](O)(C(=O)CO)C[C@@H]3O[C@H]1C[C@H](NC(=O)[C@@H]2CCCN2C(=O)CN)[C@H](O)[C@H](C)O1 [GP-Dox, NH2-Gly-Pro-Doxorubicin]	–	–	–	–	–	conversion to Dox by CD26 (CD26): 97%; conversion to Dox by FAP (FAP): 62%
COc1cccc2c1C(=O)c1c(O)c3c(c(O)c1C2=O)CC(O)(C(=O)CO)CC3OC1CC(NC(=O)C(Cc2ccccc2)NC(=O)C2CCCN2C(=O)C(CC(C)C)NC(=O)C(C)NC(=O)CP(=O)(O)O)C(O)C(C)O1 (stereo not shown) [PhAc-ALPF-Dox, PhAc-ALPF-doxorubicin]	11 ± 6%	activated into F-Dox	–	0%	<5%	% metabolites released: Dox [2]: 4%; % metabolites released: F-Dox [2]: 1%; total % metabolites [2]: 5%; % metabolites released: Dox [4]: 0%; % metabolites released: F-Dox [4]: 0%; total % metabolites [4]: 0%; TOP 5 nM (cleavage +/−) [6]: −* (*less than 5% of metabolites detected)
